Where a SMILES comes first, the peptide text is derived from it. [ ]: non-standard residue; d: D form. dPip = O=C(O)[C@H]1CCCCN1
What was measured:
[1] = target: T1, Human α-thrombin (Homo sapiens, UniProt P00734); assay: Score assay, Thr (chromogenic substrate S-2238); type: biochemical; settings: Score = fold increase in inhibitor concentration / concentration of inhibitor used (in mM), 37° C., pH 7.4
T1 construct: Human α-thrombin was obtained from J. Freysinnet (Strasbourg); purchased J. Freysinnet (Strasbourg)
Source text: (§1) Score gives a facile measure of the effectiveness of an inhibitor requiring only one or two data points, rather than the twelve or more data points required to calculate an IC50.
(§2) The principle behind calculating the score is that, although the absolute values obtained from inhibitors of the same type may be different, the shape and range of the IC50 curves are quite similar.
(§3) Molecular Devices Corp. Thermomax plate reader.
S-2238 (H-D-Phe-Pip-Arg-pNA, for Thr) was obtained from Quadratech.
(§4) Buffer for Thr, Try, Pla, UK or Xa assay: 0.1M sodium phosphate; 0.2M sodium chloride; 0.5% PEG6000; 0.02% sodium azide, pH 7.4.
(§5) Buffer for FIXa assay: 50 mM Tris; 100 mM sodium chloride; 0.5% PEG 6000, pH 7.4. The aqueous buffer was freshly mixed each day with ethylene glycol (65%:35% respectively) Human α-thrombin was obtained from J. Freysinnet (Strasbourg).
Inhibitor (100 μl of dilution in buffer of 1/20 or higher as appropriate from stock in DMSO) is added to substrate (50 μl of a dilution of 1/100 of 2.4 mg/ml stock) for 2 minutes at 37° C. Thr (50 μl of a dilution of {fraction (1/10,000)} of stock at 1 mg/ml) is added.
(§6) The data from IC50 curves for 13 compounds were used to construct an average IC50 curve.
(§7) The average values for the fold increase at each 10% step are shown below:
(§8) Measurement of single concentrations of inhibitor on a plate reader (using MDC ‘Softmax’ software) gave a value from 9 to 0 when compared to a control without inhibitor which corresponds to the % inhibition a shown in Table 1. Provided that the plate reader number was >2 but <8 (linear part of the graph) the score could then be calculated as follows.
(§9) Score=fold increase in inhibitor concentration (see table 1)/concentration of inhibitor used (in mM)

[2] = target: T2, FIXa (Homo sapiens, UniProt P00740); assay: Score assay, FIXa (chromogenic substrate Pefachrome IXa); type: biochemical; set-up: key: fold increase in inhibitor conc / inhibitor conc used (mM); settings: Score = fold increase in inhibitor concentration / concentration of inhibitor used (in mM), 37° C., pH 7.4
T2 construct: FIXa was obtained from Haematologics; purchased Haematologics
Procedure: as §1, §2, §3
Pefachrome IXa (Kordia, for FIXa)
as §5
FIXa was obtained from Haematologics.
FIXa (50 μl of a stock at 0.01 mg/ml) is added.
as §6, §7, §8, §9

[3] = target: Pla (plasmin) (Homo sapiens, UniProt P00747); assay: Score assay, Pla (chromogenic substrate S-2251); type: biochemical; settings: Table 3, substrate 113 μM
Source text: as §1, §2, §3
S-2251 (H-D-Val-Leu-Lys-pNa for Pla) was obtained from Quadratech.
as §4
(§10) Final Substrates Concentrations were 25 μM, 113 μM, 22 μM and 125 μM for Try, Pla, Xa and UK Respectively.
as §6, §7, §8, §9

[4] = target: Try (trypsin) (Homo sapiens, UniProt P07477); assay: Score assay, Try (chromogenic substrate S-2288); type: biochemical; set-up: key: score = fold increase in inhibitor conc / inhibitor conc used (mM); settings: Table 3, substrate 25 μM
Source text: as §1, §2, §3
S-2288 (H-D-Ileu-Pro-Arg-pNa for Try) was obtained from Quadratech.
as §4, §10, §6, §7, §8, §9

[5] = target: Xa (factor X activated) (Homo sapiens, UniProt P00742); assay: Score assay, Xa (chromogenic substrate S-2765); type: biochemical; set-up: key: score = fold increase in inhibitor conc / inhibitor conc used (mM); settings: Table 3, substrate 22 μM
Source text: as §1, §2, §3
S-2765 (N-α-Z-D-ArgGly-Arg-pNa for Xa) was obtained from Quadratech.
as §4, §10, §6, §7, §8, §9

[6] = target: UK (urokinase) (Homo sapiens, UniProt P00749); assay: Score assay, UK (chromogenic substrate S-2444); type: biochemical; set-up: key: score = fold increase in inhibitor conc / inhibitor conc used (mM); settings: Table 3, substrate 125 μM
Source text: as §1, §2, §3
S-2444 (pyro-Glu-Gly-Arg-pNa for UK) was obtained from Quadratech.
as §4, §10, §6, §7, §8, §9

[7] = cited from earlier work
[8] = target: thrombin (Homo sapiens, UniProt P00734); settings: cited from earlier work; for KassThr/KassThy: selectivity ratio
[9] = target: protein Ca (Homo sapiens, UniProt P04070); settings: read-out: IC50 (protein Ca system); cited from earlier work
[10] = Table 1 comparators, single concentration
[11] = Table 1 comparators, single concentration, higher = more effective

T2 sequence (P00740 227-461 limits assumed): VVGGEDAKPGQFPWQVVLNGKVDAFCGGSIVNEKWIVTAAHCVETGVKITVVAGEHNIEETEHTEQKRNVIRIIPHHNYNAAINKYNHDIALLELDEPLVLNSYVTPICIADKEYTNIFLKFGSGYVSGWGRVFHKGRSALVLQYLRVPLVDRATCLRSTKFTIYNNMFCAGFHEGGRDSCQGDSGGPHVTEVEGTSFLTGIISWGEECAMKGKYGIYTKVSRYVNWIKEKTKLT
T2 sequence (P00740 47-191 partner limits assumed): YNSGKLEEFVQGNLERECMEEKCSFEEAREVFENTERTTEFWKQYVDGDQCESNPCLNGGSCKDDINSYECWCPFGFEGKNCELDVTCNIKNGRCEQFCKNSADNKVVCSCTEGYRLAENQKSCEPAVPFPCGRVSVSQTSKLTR
Chain of Pla (plasmin) (P00747 581-810 limits assumed, species assumed): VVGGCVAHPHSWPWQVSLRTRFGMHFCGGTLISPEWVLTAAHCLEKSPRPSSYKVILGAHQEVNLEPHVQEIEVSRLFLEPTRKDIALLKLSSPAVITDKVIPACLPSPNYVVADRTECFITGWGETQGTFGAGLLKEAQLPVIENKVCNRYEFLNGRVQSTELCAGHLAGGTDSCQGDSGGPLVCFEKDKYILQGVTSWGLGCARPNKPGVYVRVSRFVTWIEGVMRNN
Chain of Pla (plasmin) (P00747 97-580 partner limits assumed, species assumed): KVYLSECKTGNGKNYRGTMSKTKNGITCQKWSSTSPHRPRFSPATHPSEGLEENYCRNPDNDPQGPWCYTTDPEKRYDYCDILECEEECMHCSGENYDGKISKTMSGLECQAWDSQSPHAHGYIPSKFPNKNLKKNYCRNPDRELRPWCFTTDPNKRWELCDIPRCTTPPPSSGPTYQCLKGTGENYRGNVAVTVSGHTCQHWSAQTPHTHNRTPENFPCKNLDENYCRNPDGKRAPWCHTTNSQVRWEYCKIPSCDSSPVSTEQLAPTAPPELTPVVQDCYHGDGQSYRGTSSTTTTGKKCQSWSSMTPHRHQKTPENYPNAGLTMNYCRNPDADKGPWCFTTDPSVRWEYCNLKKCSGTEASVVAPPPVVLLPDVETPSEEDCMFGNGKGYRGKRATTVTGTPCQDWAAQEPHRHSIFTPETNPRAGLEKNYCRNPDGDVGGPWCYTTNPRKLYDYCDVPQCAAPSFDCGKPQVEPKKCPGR
Chain of Xa (factor X activated) (P00742 235-488 limits assumed): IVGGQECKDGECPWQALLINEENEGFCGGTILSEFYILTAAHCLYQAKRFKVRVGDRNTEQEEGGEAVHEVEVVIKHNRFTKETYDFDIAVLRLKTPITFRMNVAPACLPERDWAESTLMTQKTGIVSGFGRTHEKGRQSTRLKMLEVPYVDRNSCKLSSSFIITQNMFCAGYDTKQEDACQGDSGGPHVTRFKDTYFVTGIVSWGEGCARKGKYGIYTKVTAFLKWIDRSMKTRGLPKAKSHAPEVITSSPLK
Chain of Xa (factor X activated) (P00742 41-179 partner limits assumed): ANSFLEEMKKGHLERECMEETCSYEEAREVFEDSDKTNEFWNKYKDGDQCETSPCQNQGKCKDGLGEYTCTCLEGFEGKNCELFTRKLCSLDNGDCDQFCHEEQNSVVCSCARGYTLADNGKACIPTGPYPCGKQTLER
Chain of protein Ca (P04070 212-461 limits assumed): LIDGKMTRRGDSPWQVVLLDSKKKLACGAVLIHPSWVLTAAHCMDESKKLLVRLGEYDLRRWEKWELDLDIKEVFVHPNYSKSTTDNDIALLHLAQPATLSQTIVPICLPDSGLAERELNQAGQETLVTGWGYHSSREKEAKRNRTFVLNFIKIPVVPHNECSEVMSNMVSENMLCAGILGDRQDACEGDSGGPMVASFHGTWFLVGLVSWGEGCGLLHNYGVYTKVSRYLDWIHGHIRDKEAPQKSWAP
Chain of protein Ca (P04070 43-197 partner limits assumed): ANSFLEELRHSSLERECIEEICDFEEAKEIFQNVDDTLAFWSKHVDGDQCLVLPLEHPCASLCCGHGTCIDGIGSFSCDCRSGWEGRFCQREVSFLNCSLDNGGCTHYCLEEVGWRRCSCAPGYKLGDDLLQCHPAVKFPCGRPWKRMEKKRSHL

Row | Thr Score ([1]; Table 3) | FIXa score ([2]; Table 3) | Pla (score) [3] | Try (score) [4] | Xa (score) [5] | UK (score) [6] | SMILES | also measured
1 | 1410 | 746 |  |  |  |  | N=C(N)SCc1cc(B(O)O)ccc1Oc1ccc(C(=O)c2ccccc2)cc1 [compound 1072] | 
2 | 2768 | 291 |  |  |  |  | CC1(C)OB(c2ccc(Oc3ccccc3)c(CSC(=N)N)c2)OC1(C)C [compound 1055] | 
3 |  |  |  |  |  |  | Br.N=C(N)SCc1cccc(I)c1 [compound 885] | Thr Score [1, 10]: 10; FIXa score [2, 11]: 0.6
4 | 106 | 46 | 27 | 37 | 51 | 70 | CC1(C)OB(c2cccc(CNC(=N)N)c2)OC1(C)C [compound 1006] | 
5 |  |  |  |  |  |  | c1ccc2ncccc2c1 [quinoline] | pKa [7]: 4.0
6 | 421 | 209 | 289 | 868 | 868 | 776 | N=C(N)SCc1cccc(B(O)O)c1 [compound 864] | 
7 | 572 | 157 |  |  |  |  | CC1(C)OB(c2ccc(Oc3cccc(Cl)c3)c(CSC(=N)N)c2)OC1(C)C [compound 1057] | 
8 |  |  |  |  |  |  | N=C(N)NCCC[C@@H](C=O)NC(=O)[C@@H]1CCCN1C(=O)[C@H]1CCCCN1 [D-hPro-Pro-Arg-H] (H-[dPip]-Pro-Arg-aldehyde) | KassThr [8]: 2e+06 L/mol
9 |  |  |  |  |  |  | CN[C@H](Cc1ccccc1)C(=O)N1CCC[C@H]1C(=O)N[C@H](C=O)CCCN=C(N)N [LY294468, H-D-MePhe-Pro-Arginal] | KassThr [8]: 5.4e+06 L/mol; KassThr/KassThy [8]: 5.1
10 | 15(*) | 39.0 |  |  |  |  | CC1(C)OB(c2ccc(N3CCN(c4ccccn4)CC3)c(CSC(=N)N)c2)OC1(C)C [compound 1031] | 
11 | 333 | 306 | 583 | 583 | 889 | 583 | N=C(N)SCc1cc(B(O)O)ccc1Oc1ccccc1 [compound 977] | 
12 |  |  |  |  |  |  | Br.N=C(N)NC(=N)Nc1cc(F)cc(F)c1Br [compound 929] | Thr Score [1, 10]: 0; FIXa score [2, 11]: 1.6
13 |  |  |  |  |  |  | Br.N=C(N)NC(=N)Nc1ccc(I)cc1 [compound 932] | Thr Score [1, 10]: 0; FIXa score [2, 11]: 0.3
14 | 1645 | 205 | 312 | 3 | 905 | 785 | Cc1cc(CSC(=N)N)cc(B(O)O)c1 [compound 967] | 
15 | 70 | 7 | 1 | 7 | 7 | 26 | CC1(C)OB(c2ccccc2CSC(=N)N)OC1(C)C [compound 832] | 
16 | 4156 | 229 |  |  |  |  | N#Cc1cccc(Oc2ccc(B(O)O)cc2CSC(=N)N)c1 [compound 1069] | 
17 | 38.7 | 19 | 21 | 21 | 39 | 27 | CN=C(N)SCc1cccc(B(O)O)c1 [compound 903] | 
18 | 6769 | 64 | 324 | 324 | 680 | 934 | CC(SC(=N)N)c1cccc(B2OC(C)(C)C(C)(C)O2)c1 (centres unmarked) [compound 974] | 

Row | Thr Score ([1]; Table 3) | FIXa score ([2]; Table 3) | Pla (score) [3] | Try (score) [4] | Xa (score) [5] | UK (score) [6] | SMILES | also measured
19 |  |  |  |  |  |  | Br.COC(=O)c1cccc(CSC(=N)N)c1 [compound 887] | Thr Score [1, 10]: 5.3; FIXa score [2, 11]: 0.9
20 | 666 | 97 |  |  |  |  | COc1cccc(Oc2ccc(B3OC(C)(C)C(C)(C)O3)cc2CSC(=N)N)c1 [compound 1058] | 
21 |  |  |  |  |  |  | CC(=O)NC(Cc1ccccc1)C(=O)N1CCCC1C(=O)NC(CCCNC(=N)N)B(O)O [DuP 714, Ac-D-Phe-Pro-boro Arg-OH] | IC50 [9]: 750 nM
22 | 70 | 5.4 | 3 | 7 | 7 | 26 | N=C(N)SCc1ccccc1B(O)O [compound 865] | 
23 | 1215 | 59.6 | 640 | 640 | 1862 | 880 | N=C(N)SCc1cc(CSC(=N)N)cc(B(O)O)c1 [compound 968] | 
24 | 326 | 76 | 393 | 624 | 624 | 792 | CC1(C)OB(c2cccc(CSC(=N)N)c2)OC1(C)C [compound 852] | 
25 |  |  |  |  |  |  | Br.Cc1ccc(I)cc1NC(=N)NC(=N)N [compound 930] | Thr Score [1, 10]: 0; FIXa score [2, 11]: 0.6
26 | 295 | 2 | 2 | 4 | 4 | 3 | N=C(N)SCc1cccc([N+](=O)[O-])c1 [compound 896] | 
27 | 1210 | 32 | 121 | 167 | 167 | 1210 | COc1ccc(CSC(=N)N)cc1B1OC(C)(C)C(C)(C)O1 [compound 973] | 
28 | 1959 | 285 |  |  |  |  | CC(C)Cc1ccc(Oc2ccc(B3OC(C)(C)C(C)(C)O3)cc2CSC(=N)N)cc1 [compound 1059] | 
29 | 455 | 626 |  |  |  |  | CC1(C)OB(c2ccc(Oc3ccc(Oc4ccccc4)cc3)c(CSC(=N)N)c2)OC1(C)C [compound 1056] | 
30 | 12 | 80 |  |  |  |  | CC(C)(C)OC(=O)N=C(N)N(Cc1cccc(B2OC(C)(C)C(C)(C)O2)c1)C(=O)OC(C)(C)C [compound 970] | 
31 |  |  |  |  |  |  | CC(C)N(CC(=O)N[C@H](C=O)CCCNC(=N)N)C(=O)[C@H]1CCCCN1 [D-hPro-(Nα-isopropyl)Gly-Arg-H] | KassThr/KassThy [8]: 20
32 | 2174 | 346 |  |  |  |  | N=C(N)SCc1cc(B(O)O)ccc1Oc1ccc2c(c1)CCCC2 [compound 1070] | 
33 |  |  |  |  |  |  | Br.CC(C)c1ccc(NC(=N)NC(=N)N)c(Br)c1 [compound 931] | Thr Score [1, 10]: 7.7; FIXa score [2, 11]: 0.8
34 | 2.0 | 10.1 | 1 | 2 | 1 | 4 | CC(=O)NNC(=N)SCc1cccc(B(O)O)c1 [compound 915] | 
35 | 6.4 | 6.4 | 32 | 440 | 6 | 3076 | N=C(N)SCc1ccc(B(O)O)cc1 [compound 866] | 

— patent US20040235792A1, “Serine protease inhibitors compromising a hydrogen-bond acceptor” (priority 2001, published 2004)
